What was measured:
A375 cells = experiment: Combination cytotoxicity with imexon, SRB assay, combination index (median-effect); format: cell-based, human; details: in combination with imexon at fixed constant ratio, 5 days after drugging, classified by combination index
8226/s cells = experiment: Combination cytotoxicity with imexon, MTT assay, combination index (median-effect); format: cell-based, human; details: in combination with imexon at fixed constant ratio, 5 days after drugging, classified by combination index
[1] = Toxicology study in non-tumor bearing (normal) mice
Experimental: A toxicology study was performed in non-tumor bearing (i.e., normal) mice given imexon (100 mg/kg/day×9 days) with either gemcitabine (180 mg/kg days 1, 5 and 9) or cytarabine (800 mg/kg days 1, 4 and 7). The tests were conducted to evaluate whether there was increased bone marrow toxicity or decreased renal and hepatic function for imexon combined with either agent.

Row | SMILES | Effect of second antineoplastic agent in combination with imexon, A375 CELL LINE (A375 cells) | Effect of second antineoplastic agent in combination with imexon, 8226/S CELL LINE (8226/s cells) | Mean Platelet Counts (SD), Day 10 ([1]; Day 10, imexon 100 mg/kg days 1-9, cytarabine 800 mg/kg days 1, 4, 7, gemcitabine 180 mg/kg days 1, 5, 9) | Mean Platelet Counts (SD), Day 12 ([1]; Day 12, imexon 100 mg/kg days 1-9, cytarabine 800 mg/kg days 1, 4, 7, gemcitabine 180 mg/kg days 1, 5, 9) | number of red blood cells ([1]; imexon 100 mg/kg/day x 9 days)
1 | N.N.[Cl][Pt][Cl] [cisplatin] | Synergistic (Where the combination index is less than 1, synergism is indicated) | Synergistic (Where the combination index is less than 1, synergism is indicated) | – | – | –
2 | CN(C)/N=N/c1[nH]cnc1C(N)=O [dacarbazine (DTIC), dacarbazine] | Synergistic (Where the combination index is less than 1, synergism is indicated) | Synergistic (Where the combination index is less than 1, synergism is indicated) | – | – | –
3 | CC(=O)O[C@H]1C(=O)[C@@]2(C)[C@H]([C@H](OC(=O)c3ccccc3)[C@]3(O)C[C@H](OC(=O)[C@H](O)[C@@H](NC(=O)c4ccccc4)c4ccccc4)C(C)=C1C3(C)C)[C@]1(OC(C)=O)CO[C@@H]1C[C@@H]2O [paclitaxel] | Additive (Where the combination index is equal to 1, summation (also commonly referred to as additivity) is indicated) | Antagonistic (Where the combination index is greater than 1, antagonism is indicated) | – | – | –
4 | Nc1ccn([C@@H]2O[C@H](CO)[C@@H](O)[C@@H]2O)c(=O)n1 [cytarabine] | Synergistic (Where the combination index is less than 1, synergism is indicated) | Synergistic (Where the combination index is less than 1, synergism is indicated) | – | – | –
5 | Nc1ccn([C@@H]2O[C@H](CO)[C@@H](O)C2(F)F)c(=O)n1 [gemcitabine] | Synergistic (Where the combination index is less than 1, synergism is indicated) | Synergistic (Where the combination index is less than 1, synergism is indicated) | – | – | –
6 | COc1cccc2c1C(=O)c1c(O)c3c(c(O)c1C2=O)C[C@@](O)(C(=O)CO)C[C@@H]3O[C@H]1C[C@H](N)[C@H](O)[C@H](C)O1 [doxorubicin] | Antagonistic (Where the combination index is greater than 1, antagonism is indicated) | Antagonistic (Where the combination index is greater than 1, antagonism is indicated) | – | – | –
7 | C[C@@H]1C[C@H]2[C@@H]3CCC4=CC(=O)C=C[C@]4(C)[C@@]3(F)[C@@H](O)C[C@]2(C)[C@@]1(O)C(=O)CO [dexamethasone] | Additive (Where the combination index is equal to 1, summation (also commonly referred to as additivity) is indicated) | Antagonistic (Where the combination index is greater than 1, antagonism is indicated) | – | – | –
8 | N=C1NC(=O)N2CC12 (stereo not shown) [Imexon, 4-imino-1,3-diazabicyclo[3.1.0]-hexan-2-one] | – | – | 880 (180) × 1000/μL | 920 (138) × 1000/μL | increased slightly
9 | CC(=O)O[C@@]12CO[C@@H]1C[C@H](O)[C@@]1(C)C(=O)[C@H](O)C3=C(C)[C@@H](OC(=O)[C@H](O)[C@@H](NC(=O)OC(C)(C)C)c4ccccc4)C[C@@](O)([C@@H](OC(=O)c4ccccc4)[C@H]21)C3(C)C [taxotere, docetaxel] | Synergistic (Where the combination index is less than 1, synergism is indicated) | Synergistic (Where the combination index is less than 1, synergism is indicated) | – | – | –
10 | O=c1[nH]cc(F)c(=O)[nH]1 [5-fluorouracil] | Synergistic (Where the combination index is less than 1, synergism is indicated) | Synergistic (Where the combination index is less than 1, synergism is indicated) | – | – | –
11 | CN(Cc1cnc2nc(N)nc(N)c2n1)c1ccc(C(=O)N[C@@H](CCC(=O)O)C(=O)O)cc1 [methotrexate] | Antagonistic (Where the combination index is greater than 1, antagonism is indicated) | Antagonistic (Where the combination index is greater than 1, antagonism is indicated) | – | – | –
12 | CCC1=C[C@@H]2CN(C1)Cc1c([nH]c3ccccc13)[C@@](C(=O)OC)(c1cc3c(cc1OC)N(C)[C@H]1[C@@](O)(C(=O)OC)[C@H](OC(C)=O)[C@]4(CC)C=CCN5CC[C@]31[C@@H]54)C2 [vinorelbine] | Additive (Where the combination index is equal to 1, summation (also commonly referred to as additivity) is indicated) | Additive (Where the combination index is equal to 1, summation (also commonly referred to as additivity) is indicated) | – | – | –
